Test results reported in patent publication US6891043B2, “Inhibitors of fatty acid amide hydrolase” (The Scripps Research Institute, priority 2000, dated 2005).
pKi: −log10 of the molar value. “Also recorded” adds a separate entry of the source.

Assays:
treated animals = assay: In vivo sleep study with 17 (wakefulness, SWS2, REM sleep); settings: 10 mg/kg ip, first 4 h of administration, versus controls
Description: The in vivo properties of the inhibitors detailed herein and their action on the identified oleamide and anandamide potential sites of action are presented herein. […] Accordingly, the inhibitors disclosed herein are useful as inhibitors of FAAH and related amidases, and as a therapeutic agents with applications as sleep aids or analgesics which act by preserving endogenous levels of oleamide and anandamide.

FAAH [1] = target: T1, FAAH (Rattus norvegicus, UniProt P97612); assay: FAAH inhibition: breakdown of 14C-oleamide to oleic acid, solubilized liver plasma membrane extract; assay type: biochemical; settings: for pKi: Dixon method, 14C-oleamide substrate, pH 9.0, 20-23° C., read-out: K1
T1 construct: using a solubilized liver plasma membrane extract containing FAAH; from tissue; host or cells: liver (solubilized plasma membrane extract)
T1 sequence (P97612 1-579): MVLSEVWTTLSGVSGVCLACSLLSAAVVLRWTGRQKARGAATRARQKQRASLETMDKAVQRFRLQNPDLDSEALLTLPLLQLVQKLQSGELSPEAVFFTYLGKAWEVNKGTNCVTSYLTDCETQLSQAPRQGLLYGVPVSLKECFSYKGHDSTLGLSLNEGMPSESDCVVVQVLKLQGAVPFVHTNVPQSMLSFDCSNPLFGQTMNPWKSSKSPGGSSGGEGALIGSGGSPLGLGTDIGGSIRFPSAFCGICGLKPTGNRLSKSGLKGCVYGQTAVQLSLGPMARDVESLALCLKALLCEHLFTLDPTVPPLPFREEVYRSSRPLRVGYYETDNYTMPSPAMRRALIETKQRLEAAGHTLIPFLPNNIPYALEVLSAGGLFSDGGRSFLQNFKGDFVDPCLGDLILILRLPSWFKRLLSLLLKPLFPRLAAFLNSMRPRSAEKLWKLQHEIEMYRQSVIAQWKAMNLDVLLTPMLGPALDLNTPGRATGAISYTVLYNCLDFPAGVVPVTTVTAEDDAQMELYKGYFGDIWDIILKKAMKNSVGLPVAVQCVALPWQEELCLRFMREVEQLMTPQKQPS
Procedure: K1 values were determined by the Dixon method α-intercepts of weighted linear fits of […] plots at constant substrate concentration, which were converted to K1 values using the formula K1=−xint/[1+[S]/Km]).

FAAH [2] = target: T2, FAAH (Homo sapiens, UniProt O00519); settings: FAAH substrate preference; cited from earlier work
T2 sequence (O00519 1-579): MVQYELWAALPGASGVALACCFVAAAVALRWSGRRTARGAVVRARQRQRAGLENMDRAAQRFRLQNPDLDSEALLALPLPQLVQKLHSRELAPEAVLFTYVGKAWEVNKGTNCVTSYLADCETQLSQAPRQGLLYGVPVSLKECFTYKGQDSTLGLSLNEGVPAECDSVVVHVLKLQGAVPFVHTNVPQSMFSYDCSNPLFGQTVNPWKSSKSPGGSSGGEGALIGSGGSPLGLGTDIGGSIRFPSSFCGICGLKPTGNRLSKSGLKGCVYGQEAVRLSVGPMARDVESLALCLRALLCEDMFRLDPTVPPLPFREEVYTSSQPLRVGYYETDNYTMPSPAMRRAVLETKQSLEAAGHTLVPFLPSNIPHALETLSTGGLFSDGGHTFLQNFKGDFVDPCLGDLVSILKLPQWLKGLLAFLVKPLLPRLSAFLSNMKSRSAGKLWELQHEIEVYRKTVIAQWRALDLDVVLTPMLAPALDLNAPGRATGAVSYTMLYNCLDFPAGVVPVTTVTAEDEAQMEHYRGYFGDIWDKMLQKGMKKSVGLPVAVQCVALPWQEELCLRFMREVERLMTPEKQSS

| Compound | melting point [°C] | FAAH inhibitor potency / activity in words (FAAH [1]) | further results |
| --- | --- | --- | --- |
| O=C(CCCCCCc1ccccc1)c1nc2ncccc2o1 [compound 54, 1-(Oxazolo[4,5-b]pyridin-2-yl)-1-oxo-7-phenylheptane] | 60 to 61 |  |  |
| O=C(CCCCCCCc1ccccc1)c1nc2ncccc2o1 [compound 55, 1-(Oxazolo[4,5-b]pyridin-2-yl)-1-oxo-8-phenyloctane] | 70 to 73 |  |  |
| CCCCCCCC/C=C\CCCCCCCC(=O)c1cccnn1 [compound 17, 1-Oxo-1-(3-pyridazinyl)-9(Z)-octadecene] |  | more potent than 33 and 35, respectively | decrease of time spent in wakefulness, of the total time (treated animals): 14%; increase of time spent in REM sleep (treated animals): 75%; increase of time spent in REM sleep, of total time (treated animals): 4%; increase of time spent in SWS2 (treated animals): 45%; increase of time spent in SWS2, of the total time (treated animals): 10%; reduction of time spent in wakefulness (treated animals): 20% |
| CCCCC(=O)c1nc2ncccc2o1 [compound 49, 1-(Oxazolo[4,5-b]pyridin-2-yl)-1-oxo-pentane] | 35 to 37 |  |  |
| CCCCCCCCCCCC(O)c1nc2ncccc2o1 (stereo not shown) [compound 60, 1-Hydroxy-1-(oxazolo[4,5-b]pyridin-2-yl)dodecane] |  |  | pKi (FAAH [1]): 5.92; times less potent than the corresponding keto derivative (reduction to alcohol) (FAAH [1]; α-hydroxy versus α-keto): approximately 10^3 times |
| CCCCCCCC/C=C\CCCCCCCC(=O)c1nnn(C)n1 [compound 14, 1-(2-Methyl-2H-tetrazol-5-yl)-1-oxo-9(Z)-octadecene] |  | matched the potency of the trifluoromethyl ketone 3 |  |
| CCCCCCCC/C=C\CCCCCCCC(=O)c1nc2cccc(C)c2o1 [compound 28, 1-(7-Methylbenzoxazol-2-yl)-1-oxo-9(Z)-octadecene] |  | greatly diminished |  |
| CCCCCCCCCCCCCC(=O)c1nc2ncccc2o1 [compound 43, 1-(Oxazolo[4,5-b]pyridin-2-yl)-1-oxo-tetradecane] | 73 to 74 |  |  |
| CCCCCCCC/C=C/CCCCCCCC(=O)c1cccnn1 [compound 35, 1-Oxo-1-(3-pyridazinyl)-9(E)-octadecene] |  | more potent than 34 and 36 |  |
| CCCCC/C=C\C/C=C\C/C=C\C/C=C\CCCC(N)=O [arachidonamide] |  |  | rel. rate of hydrolysis (FAAH [2]): 1 |
| CCCCCCCCCCCC(=O)c1nc2ncccc2o1 [compound 44, 1-(Oxazolo[4,5-b]pyridin-2-yl)-1-oxo-dodecane] | 68 to 69 |  |  |
| CCCCCCCCCCCCCCCCCCc1nc2ncccc2o1 [compound 61, 1-(Oxazolo[4,5-b]pyridin-2-yl)octadecane] | 84 to 85 | inactive | additional fold loss of binding affinity with removal of the alcohol (FAAH [1]; versus α-hydroxy compound): 10^2 fold; fold loss of binding affinity / potency with removal of the keto group (FAAH [1]; versus α-keto compound): 10^5 fold |
| CCCCCC(=O)c1nc2ncccc2o1 [compound 48, 1-(Oxazolo[4,5-b]pyridin-2-yl)-1-oxo-hexane] | 51 to 53 |  |  |
| CCCCCCCC/C=C\CCCCCCCC(=O)c1nc2ncccc2o1 [compound 29, 1-(Oxazolo[4,5-b]pyridin-2-yl)-1-oxo-9(Z)-octadecene] |  | most potent inhibitor; also recorded: more potent than 33 and 35, respectively |  |
| CCCCCCCC(=O)c1nc2ncccc2o1 [compound 46, 1-(Oxazolo[4,5-b]pyridin-2-yl)-1-oxo-octane] | 60 to 61 |  |  |
| O=C(CCCCCc1ccccc1)c1nc2ncccc2o1 [compound 53, 1-(Oxazolo[4,5-b]pyridin-2-yl)-1-oxo-6-phenylhexane] | 61 to 63 |  | pKi (FAAH [1]): > 9.70 |
| CCCCCCCCCCCCCCCC(=O)c1nc2ncccc2o1 [compound 42, 1-(Oxazolo[4,5-b]pyridin-2-yl)-1-oxo-hexadecane] | 77 to 78 |  |  |
| CCCCCCCC/C=C\CCCCCCCC(N)=O [oleamide] |  |  | rel. rate of hydrolysis (FAAH [2]): 0.7 |
| CC(=O)c1nc2ncccc2o1 [compound 50, 1-(Oxazolo[4,5-b]pyridin-2-yl)-1-oxo-ethane] | 103 to 105 |  |  |
| CCCCCCCC/C=C/CCCCCCCC(=O)c1nc2ncccc2o1 [compound 33, 1-(Oxazolo[4,5-b]pyridin-2-yl)-1-oxo-9(E)-octadecene] |  | more potent than 34 and 36 |  |
| CCCCCCCC/C=C\CCCCCCCC(=O)c1nc2ccccc2o1 [compound 23, 1-(2-Benzoxazolyl)-1-oxo-9(Z)-octadecene] |  | more potent than 37 |  |
| CCCCCCCCCC(=O)c1nc2ncccc2o1 [compound 45, 1-(Oxazolo[4,5-b]pyridin-2-yl)-1-oxo-decane] | 60 to 62 |  |  |
| CCCCCCC(=O)c1nc2ncccc2o1 [compound 47, 1-(Oxazolo[4,5-b]pyridin-2-yl)-1-oxo-heptane] | 52 to 53 |  |  |
